Results taken from patent publication US9113629B2, “4-amino-6-(4-substituted-phenyl)-picolinates and 6-amino-2-(4-substituted-phenyl)-pyrimidine-4-carboxylates and their use as herbicides” (DOW AGROSCIENCES LLC, priority 2013, dated 2015).
Like-named read-outs stand apart in the source and are kept apart here.

Legend:
[1] = test system: Key Broadleaf Weed and Crop Species; test: Post-emergent Test II herbicidal activity (Table 5); assay type: in vivo; conditions: post-emergence, 336 h, 14 days after application
Procedure: (§1) Post-emergent Test II: Seeds or nutlets of the desired test plant species were planted in Sun Gro Metro-Mix® 360 planting mixture, which typically has a pH of 6.0 to 6.8 and an organic matter content of about 30 percent, in plastic pots with a surface area of 64 square centimeters. When required to ensure good germination and healthy plants, a fungicide treatment and/or other chemical or physical treatment was applied. The plants were grown for 7-21 d in a greenhouse with an approximate 15 h photoperiod which was maintained at about 23-29° C. during the day and 22-28° C. during the night. Nutrients and water were added on a regular basis and supplemental lighting was provided with overhead metal halide 1000-Watt lamps as necessary. The plants were employed for testing when they reached the first or second true leaf stage.
(§2) A weighed amount, determined by the highest rate to be tested, of each test compound was placed in a 25 mL glass vial and was dissolved in 4 mL of a 97:3 v/v mixture of acetone and DMSO to obtain concentrated stock solutions. […] The concentrated stock solutions obtained were diluted with 20 mL of an aqueous mixture containing acetone, water, isopropyl alcohol, DMSO. Atplus 411F crop oil concentrate, and Triton® X-155 surfactant in a 48.5:39:10:1.5:1.0:0.02 v/v ratio to obtain spray solutions containing the highest application rates. Additional application rates were obtained by serial dilution of 12 mL of the high rate solution into a solution containing 2 mL of 97:3 v/v mixture of acetone and DMSO and 10 mL of an aqueous mixture containing acetone, water, isopropyl alcohol, DMSO, Atplus 411F crop oil concentrate, and Triton X-155 surfactant in a 48.5:39:10:1.5:1.0:0.02 v/v ratio to obtain ½×, ¼×, ⅛× and 1/16× rates of the high rate. Compound requirements are based upon a 12 mL application volume at a rate of 187 liters per hectare (L/ha). Formulated compounds were applied to the plant material with an overhead Mandel track sprayer equipped with 8002E nozzles calibrated to deliver 187 L/ha over an application area of 0.503 square meters at a spray height of 18 inches (43 cm) above the average plant canopy height. Control plants were sprayed in the same manner with the solvent blank.
(§3) The treated plants and control plants were placed in a greenhouse as described above and watered by subirrigation to prevent wash-off of the test compounds. After 14 d, the condition of the test plants as compared with that of the untreated plants was determined visually and scored on a scale of 0 to 100 percent where 0 corresponds to no injury and 100 corresponds to complete kill.

[2] = test system: Key Grass and Sedge Weeds as well as Grass Crops; test: Post-emergent Test II herbicidal activity (Table 6); assay type: in vivo; conditions: post-emergence, 336 h; for pest or weed control at 70 g/ha: application rate 70 g ai/ha; for pest or weed control at 140 g/ha: application rate 140 g ai/ha
Procedure: as §1, §2, §3

[3] = Triticum aestivum, TRZSS (wheat), read-out: Visual Growth Reduction (%) 14 Days After Application, TRZSS
[4] = CYPES: yellow nutsedge (Cyperus esculentus), read-out: Visual Growth Reduction (%) 14 Days After Application, CYPES
[5] = DIGSA: crabgrass (Digitaria sanguinalis), read-out: Visual Growth Reduction (%) 14 Days After Application, DIGSA
[6] = ORYSA: rice (Oryza sativa), read-out: Visual Growth Reduction (%) 14 Days After Application, ORYSA
[7] = SETFA: giant foxtail (Setaria faberi), read-out: Visual Growth Reduction (%) 14 Days After Application, SETFA
[8] = SORVU: grain sorghum (Sorghum vulgare), read-out: Visual Growth Reduction (%) 14 Days After Application, SORVU
[9] = ZEAMX: maize, corn (Zea mays), read-out: Visual Growth Reduction (%) 14 Days After Application, ZEAMX

Row | Compound | melting point [°C] | pest or weed control at 70 g/ha [2, 3] [%] | pest or weed control at 140 g/ha [2, 3] [%] | pest or weed control at 70 g/ha [2, 4] [%] | pest or weed control at 140 g/ha [2, 4] [%] | pest or weed control at 70 g/ha [2, 5] [%] | pest or weed control at 140 g/ha [2, 5] [%] | pest or weed control at 70 g/ha [2, 6] [%] | pest or weed control at 140 g/ha [2, 6] [%] | pest or weed control at 70 g/ha [2, 7] [%] | pest or weed control at 140 g/ha [2, 7] [%] | pest or weed control at 70 g/ha [2, 8] [%] | pest or weed control at 140 g/ha [2, 8] [%] | pest or weed control at 70 g/ha [2, 9] [%] | pest or weed control at 140 g/ha [2, 9] [%] | further results
1 | C#Cc1ccc(-c2nc(C(=O)O)c(Cl)c(N)c2C)cc1F [Compound 6, 4-Amino-3-chloro-6-(4-ethynyl-3-fluorophenyl)-5-methylpicolinic acid] | 175 to 176.5 |  |  |  |  |  |  |  |  |  |  |  |  |  |  | 
2 | COC(=O)c1nc(-c2cccc(F)c2)c(F)c(N)c1Cl [Compound 183] |  | 0 to 29 | 0 to 29 | 0 to 29 | 0 to 29 | 0 to 29 | 0 to 29 | 0 to 29 | 0 to 29 | 0 to 29 | 0 to 29 | 30 to 44 | 45 to 59 | 0 to 29 | 0 to 29 | pest or weed control at 70 g/ha ([1]; ABUTH: velvetleaf (Abutilon theophrasti), application rate 70 g ai/ha, read-out: Visual Growth Reduction (%) 14 Days After Application, ABUTH): 75 to 84%; pest or weed control at 140 g/ha ([1]; ABUTH: velvetleaf (Abutilon theophrasti), application rate 140 g ai/ha, read-out: Visual Growth Reduction (%) 14 Days After Application, ABUTH): 95 to 100%; pest or weed control at 70 g/ha ([1]; AMARE: redroot pigweed (Amaranthus retroflexus), application rate 70 g ai/ha, read-out: Visual Growth Reduction (%) 14 Days After Application, AMARE): 95 to 100%; pest or weed control at 140 g/ha ([1]; AMARE: redroot pigweed (Amaranthus retroflexus), application rate 140 g ai/ha, read-out: Visual Growth Reduction (%) 14 Days After Application, AMARE): 95 to 100%; pest or weed control at 70 g/ha ([1]; BRSNN: oilseed-rape, canola (Brassica napus), application rate 70 g ai/ha, read-out: Visual Growth Reduction (%) 14 Days After Application, BRSNN): 60 to 74%; pest or weed control at 140 g/ha ([1]; BRSNN: oilseed-rape, canola (Brassica napus), application rate 140 g ai/ha, read-out: Visual Growth Reduction (%) 14 Days After Application, BRSNN): 85 to 94%; pest or weed control at 70 g/ha ([1]; CHEAL: lambsquarters (Chenopodium album), application rate 70 g ai/ha, read-out: Visual Growth Reduction (%) 14 Days After Application, CHEAL): 95 to 100%; pest or weed control at 140 g/ha ([1]; CHEAL: lambsquarters (Chenopodium album), application rate 140 g ai/ha, read-out: Visual Growth Reduction (%) 14 Days After Application, CHEAL): 95 to 100%; pest or weed control at 70 g/ha ([1]; EPHHL: wild poinsettia (Euphorbia heterophylla), application rate 70 g ai/ha, read-out: Visual Growth Reduction (%) 14 Days After Application, EPHHL): 95 to 100%; pest or weed control at 140 g/ha ([1]; EPHHL: wild poinsettia (Euphorbia heterophylla), application rate 140 g ai/ha, read-out: Visual Growth Reduction (%) 14 Days After Application, EPHHL): 95 to 100%; pest or weed control at 70 g/ha ([1]; HELAN: sunflower (Helianthus annuus), application rate 70 g ai/ha, read-out: Visual Growth Reduction (%) 14 Days After Application, HELAN): 85 to 94%; pest or weed control at 140 g/ha ([1]; HELAN: sunflower (Helianthus annuus), application rate 140 g ai/ha, read-out: Visual Growth Reduction (%) 14 Days After Application, HELAN): 85 to 94%; pest or weed control at 70 g/ha ([1]; VIOTR: wild pansy (Viola tricolor), application rate 70 g ai/ha, read-out: Visual Growth Reduction (%) 14 Days After Application, VIOTR): 0 to 29%; pest or weed control at 140 g/ha ([1]; VIOTR: wild pansy (Viola tricolor), application rate 140 g ai/ha, read-out: Visual Growth Reduction (%) 14 Days After Application, VIOTR): 0 to 29%
3 | COC(=O)c1nc(-c2cc(F)ccc2F)c(F)c(N)c1Cl [Compound 189] |  | 0 to 29 | 0 to 29 | 0 to 29 | 0 to 29 | 0 to 29 | 0 to 29 | 0 to 29 | 0 to 29 | 0 to 29 | 0 to 29 | 0 to 29 | 0 to 29 | 0 to 29 | 0 to 29 | pest or weed control at 70 g/ha ([1]; ABUTH: velvetleaf (Abutilon theophrasti), 70 g ai/ha, post-emergent, read-out: Visual Growth Reduction (%) 14 Days After Application ABUTH): 75 to 84%; pest or weed control at 140 g/ha ([1]; ABUTH: velvetleaf (Abutilon theophrasti), 140 g ai/ha, post-emergent, read-out: Visual Growth Reduction (%) 14 Days After Application ABUTH): 75 to 84%; pest or weed control at 70 g/ha ([1]; AMARE: redroot pigweed (Amaranthus retroflexus), 70 g ai/ha, post-emergent, read-out: Visual Growth Reduction (%) 14 Days After Application AMARE): 95 to 100%; pest or weed control at 140 g/ha ([1]; AMARE: redroot pigweed (Amaranthus retroflexus), 140 g ai/ha, post-emergent, read-out: Visual Growth Reduction (%) 14 Days After Application AMARE): 95 to 100%; pest or weed control at 70 g/ha ([1]; BRSNN: oilseed-rape, canola (Brassica napus), 70 g ai/ha, post-emergent, read-out: Visual Growth Reduction (%) 14 Days After Application BRSNN): 45 to 59%; pest or weed control at 140 g/ha ([1]; BRSNN: oilseed-rape, canola (Brassica napus), 140 g ai/ha, post-emergent, read-out: Visual Growth Reduction (%) 14 Days After Application BRSNN): 60 to 74%; pest or weed control at 70 g/ha ([1]; CHEAL: lambsquarters (Chenopodium album), 70 g ai/ha, post-emergent, read-out: Visual Growth Reduction (%) 14 Days After Application CHEAL): 85 to 94%; pest or weed control at 140 g/ha ([1]; CHEAL: lambsquarters (Chenopodium album), 140 g ai/ha, post-emergent, read-out: Visual Growth Reduction (%) 14 Days After Application CHEAL): 85 to 94%; pest or weed control at 70 g/ha ([1]; EPHHL: wild poinsettia (Euphorbia heterophylla), 70 g ai/ha, post-emergent, read-out: Visual Growth Reduction (%) 14 Days After Application EPHHL): 0 to 29%; pest or weed control at 140 g/ha ([1]; EPHHL: wild poinsettia (Euphorbia heterophylla), 140 g ai/ha, post-emergent, read-out: Visual Growth Reduction (%) 14 Days After Application EPHHL): 0 to 29%; pest or weed control at 70 g/ha ([1]; HELAN: sunflower (Helianthus annuus), 70 g ai/ha, post-emergent, read-out: Visual Growth Reduction (%) 14 Days After Application HELAN): 85 to 94%; pest or weed control at 140 g/ha ([1]; HELAN: sunflower (Helianthus annuus), 140 g ai/ha, post-emergent, read-out: Visual Growth Reduction (%) 14 Days After Application HELAN): 85 to 94%; pest or weed control at 140 g/ha ([1]; VIOTR: wild pansy (Viola tricolor), 140 g ai/ha, post-emergent, read-out: Visual Growth Reduction (%) 14 Days After Application VIOTR): 0 to 29%

Further lines, with some results ahead:

Row | melting point [°C] | Compound | pest or weed control at 70 g/ha [2, 3] [%] | pest or weed control at 140 g/ha [2, 3] [%] | pest or weed control at 70 g/ha [2, 4] [%] | pest or weed control at 140 g/ha [2, 4] [%] | pest or weed control at 70 g/ha [2, 5] [%] | pest or weed control at 140 g/ha [2, 5] [%] | pest or weed control at 70 g/ha [2, 6] [%] | pest or weed control at 140 g/ha [2, 6] [%] | pest or weed control at 70 g/ha [2, 7] [%] | pest or weed control at 140 g/ha [2, 7] [%] | pest or weed control at 70 g/ha [2, 8] [%] | pest or weed control at 140 g/ha [2, 8] [%] | pest or weed control at 70 g/ha [2, 9] [%] | pest or weed control at 140 g/ha [2, 9] [%] | further results
4 | 95 to 96 | C=Cc1c(C(=O)OC)nc(-c2ccc(I)cc2)c(F)c1N [Compound 139, methyl 4-amino-5-fluoro-6-(4-iodophenyl)-3-vinylpicolinate] |  |  |  |  |  |  |  |  |  |  |  |  |  |  | 
5 | 142 to 144 | C=Cc1c(N)nc(-c2ccc(I)cc2)nc1C(=O)OC [Compound 164, methyl 6-amino-2-(4-iodophenyl)-5-vinylpyrimidine-4-carboxylate] |  |  |  |  |  |  |  |  |  |  |  |  |  |  | 
6 | 130 to 132 | COc1c(N)nc(-c2ccccc2)nc1C(=O)O [Compound 207] |  |  |  |  |  |  |  |  |  |  |  |  |  |  | 
